Experimental data taken from ChEMBL document CHEMBL1914426, “Phospshoinositide 3-kinase (PI3K)/mammalian target of rapamycin (mTOR) dual inhibitors: discovery and structure-activity relationships of a series of quinoline and quinoxaline derivatives” (J Med Chem, 2011).
pIC50, pKi: −log10 of the molar value.

What was measured:
[1] = target: T1, Phosphatidylinositol 4,5-bisphosphate 3-kinase catalytic subunit alpha isoform (Homo sapiens, UniProt P42336)
[2] = target: T1, Phosphatidylinositol 4,5-bisphosphate 3-kinase catalytic subunit alpha isoform; remark: listed apart in the source
[3] = target: T2, Phosphatidylinositol 4,5-bisphosphate 3-kinase catalytic subunit delta isoform (Homo sapiens, UniProt O00329)
T2 sequence (O00329 whole entry): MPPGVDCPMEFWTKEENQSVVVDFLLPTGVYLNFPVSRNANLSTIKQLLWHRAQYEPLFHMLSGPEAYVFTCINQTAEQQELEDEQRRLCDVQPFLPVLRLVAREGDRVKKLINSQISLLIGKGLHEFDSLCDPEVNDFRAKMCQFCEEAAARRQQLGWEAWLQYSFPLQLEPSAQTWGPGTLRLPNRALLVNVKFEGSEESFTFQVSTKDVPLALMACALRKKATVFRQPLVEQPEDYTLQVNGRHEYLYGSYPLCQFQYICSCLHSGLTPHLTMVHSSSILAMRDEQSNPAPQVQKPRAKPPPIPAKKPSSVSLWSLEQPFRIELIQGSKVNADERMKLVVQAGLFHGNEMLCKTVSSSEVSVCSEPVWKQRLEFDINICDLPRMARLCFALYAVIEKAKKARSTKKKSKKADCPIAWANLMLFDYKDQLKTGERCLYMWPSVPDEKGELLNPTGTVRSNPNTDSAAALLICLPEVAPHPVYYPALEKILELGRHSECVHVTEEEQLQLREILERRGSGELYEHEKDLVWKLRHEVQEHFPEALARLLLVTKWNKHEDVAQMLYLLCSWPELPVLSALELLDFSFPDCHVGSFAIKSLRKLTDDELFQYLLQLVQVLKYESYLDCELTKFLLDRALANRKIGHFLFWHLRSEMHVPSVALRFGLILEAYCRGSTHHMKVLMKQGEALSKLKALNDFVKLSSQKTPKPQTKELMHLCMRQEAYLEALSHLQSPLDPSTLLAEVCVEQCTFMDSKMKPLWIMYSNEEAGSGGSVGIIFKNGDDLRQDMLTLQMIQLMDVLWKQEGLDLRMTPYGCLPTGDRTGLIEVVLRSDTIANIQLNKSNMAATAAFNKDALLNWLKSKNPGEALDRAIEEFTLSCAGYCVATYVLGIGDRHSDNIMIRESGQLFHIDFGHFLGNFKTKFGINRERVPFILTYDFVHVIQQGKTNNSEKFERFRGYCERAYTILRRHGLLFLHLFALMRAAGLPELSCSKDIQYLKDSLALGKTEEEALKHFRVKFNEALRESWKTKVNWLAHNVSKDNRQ

[4] = target: Phosphatidylinositol 4,5-bisphosphate 3-kinase catalytic subunit gamma isoform (Homo sapiens, UniProt P48736); design: species or system Sf9
[5] = in vitro; conditions: rat, liver microsomes
Description: Clearance in rat liver microsomes assessed as compound remaining at 1 uM after 30 mins

[6] = in vitro; conditions: human, liver microsomes
Description: Clearance in human liver microsomes assessed as compound remaining at 1 uM after 30 mins

[7] = target: Phosphatidylinositol 4,5-bisphosphate 3-kinase catalytic subunit beta isoform (Homo sapiens, UniProt P42338)
[8] = organism: Rattus norvegicus; conditions: in vivo, iv, 1 mg/kg
Description: Hepatic blood flow in Sprague-Dawley rat 1 mg/kg, iv

T1 sequence (P42336 whole entry, canonical isoform): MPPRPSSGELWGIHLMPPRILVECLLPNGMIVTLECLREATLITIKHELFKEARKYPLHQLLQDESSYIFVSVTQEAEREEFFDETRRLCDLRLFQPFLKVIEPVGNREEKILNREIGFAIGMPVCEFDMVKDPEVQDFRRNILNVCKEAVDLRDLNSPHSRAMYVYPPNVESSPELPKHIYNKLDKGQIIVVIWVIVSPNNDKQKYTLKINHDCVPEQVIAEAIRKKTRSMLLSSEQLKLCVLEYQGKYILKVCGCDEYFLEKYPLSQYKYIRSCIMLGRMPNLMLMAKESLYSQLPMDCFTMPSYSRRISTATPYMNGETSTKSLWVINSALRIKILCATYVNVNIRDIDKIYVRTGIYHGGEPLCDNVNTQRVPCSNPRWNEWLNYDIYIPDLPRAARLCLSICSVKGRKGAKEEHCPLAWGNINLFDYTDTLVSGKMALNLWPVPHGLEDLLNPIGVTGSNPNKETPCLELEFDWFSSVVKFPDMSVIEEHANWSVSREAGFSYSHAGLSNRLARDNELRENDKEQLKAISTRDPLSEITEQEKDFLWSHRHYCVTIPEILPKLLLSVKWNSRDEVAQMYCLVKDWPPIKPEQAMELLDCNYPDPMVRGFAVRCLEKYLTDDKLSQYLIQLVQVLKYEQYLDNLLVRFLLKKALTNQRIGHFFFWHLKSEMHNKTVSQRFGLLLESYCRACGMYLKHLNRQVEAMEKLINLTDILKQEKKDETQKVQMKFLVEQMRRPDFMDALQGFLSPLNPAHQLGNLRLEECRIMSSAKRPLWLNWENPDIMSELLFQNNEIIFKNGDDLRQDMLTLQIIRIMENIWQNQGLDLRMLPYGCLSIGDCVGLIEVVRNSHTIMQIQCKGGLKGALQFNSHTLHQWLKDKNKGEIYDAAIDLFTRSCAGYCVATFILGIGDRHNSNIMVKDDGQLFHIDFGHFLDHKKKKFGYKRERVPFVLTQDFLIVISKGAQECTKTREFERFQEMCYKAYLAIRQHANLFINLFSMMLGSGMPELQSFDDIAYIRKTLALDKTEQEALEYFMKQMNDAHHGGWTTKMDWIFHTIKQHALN
Phosphatidylinositol 4,5-bisphosphate 3-kinase catalytic subunit gamma isoform, sequence (P48736 whole entry, canonical isoform): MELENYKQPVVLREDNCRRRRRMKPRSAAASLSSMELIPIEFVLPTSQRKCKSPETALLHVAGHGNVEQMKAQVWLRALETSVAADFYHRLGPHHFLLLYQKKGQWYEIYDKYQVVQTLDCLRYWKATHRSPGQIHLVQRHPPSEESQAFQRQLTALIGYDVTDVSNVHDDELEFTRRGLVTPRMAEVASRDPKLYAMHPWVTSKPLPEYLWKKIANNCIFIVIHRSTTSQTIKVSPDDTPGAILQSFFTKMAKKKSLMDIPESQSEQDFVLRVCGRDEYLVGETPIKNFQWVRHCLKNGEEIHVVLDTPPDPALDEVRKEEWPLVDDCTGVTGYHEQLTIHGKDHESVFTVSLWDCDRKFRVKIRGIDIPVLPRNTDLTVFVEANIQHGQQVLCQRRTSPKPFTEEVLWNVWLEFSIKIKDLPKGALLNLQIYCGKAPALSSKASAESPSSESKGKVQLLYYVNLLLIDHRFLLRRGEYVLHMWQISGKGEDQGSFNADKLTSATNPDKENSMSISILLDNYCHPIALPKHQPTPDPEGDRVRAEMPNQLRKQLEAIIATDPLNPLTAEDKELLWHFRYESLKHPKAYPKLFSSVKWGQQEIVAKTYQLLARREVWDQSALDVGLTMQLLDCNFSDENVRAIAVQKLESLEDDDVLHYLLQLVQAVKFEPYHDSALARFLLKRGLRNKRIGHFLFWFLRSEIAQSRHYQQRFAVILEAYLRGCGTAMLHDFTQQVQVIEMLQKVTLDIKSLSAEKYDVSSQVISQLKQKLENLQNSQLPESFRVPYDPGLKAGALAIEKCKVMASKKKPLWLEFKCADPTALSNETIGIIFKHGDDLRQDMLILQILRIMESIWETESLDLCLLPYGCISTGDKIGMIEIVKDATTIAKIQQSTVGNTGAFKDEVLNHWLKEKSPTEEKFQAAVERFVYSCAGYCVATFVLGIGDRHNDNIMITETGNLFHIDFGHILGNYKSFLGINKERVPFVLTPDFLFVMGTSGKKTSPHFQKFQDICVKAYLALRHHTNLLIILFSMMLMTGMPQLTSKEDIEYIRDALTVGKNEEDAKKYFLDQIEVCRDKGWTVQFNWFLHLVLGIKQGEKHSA
Phosphatidylinositol 4,5-bisphosphate 3-kinase catalytic subunit beta isoform, sequence (P42338 whole entry, canonical isoform): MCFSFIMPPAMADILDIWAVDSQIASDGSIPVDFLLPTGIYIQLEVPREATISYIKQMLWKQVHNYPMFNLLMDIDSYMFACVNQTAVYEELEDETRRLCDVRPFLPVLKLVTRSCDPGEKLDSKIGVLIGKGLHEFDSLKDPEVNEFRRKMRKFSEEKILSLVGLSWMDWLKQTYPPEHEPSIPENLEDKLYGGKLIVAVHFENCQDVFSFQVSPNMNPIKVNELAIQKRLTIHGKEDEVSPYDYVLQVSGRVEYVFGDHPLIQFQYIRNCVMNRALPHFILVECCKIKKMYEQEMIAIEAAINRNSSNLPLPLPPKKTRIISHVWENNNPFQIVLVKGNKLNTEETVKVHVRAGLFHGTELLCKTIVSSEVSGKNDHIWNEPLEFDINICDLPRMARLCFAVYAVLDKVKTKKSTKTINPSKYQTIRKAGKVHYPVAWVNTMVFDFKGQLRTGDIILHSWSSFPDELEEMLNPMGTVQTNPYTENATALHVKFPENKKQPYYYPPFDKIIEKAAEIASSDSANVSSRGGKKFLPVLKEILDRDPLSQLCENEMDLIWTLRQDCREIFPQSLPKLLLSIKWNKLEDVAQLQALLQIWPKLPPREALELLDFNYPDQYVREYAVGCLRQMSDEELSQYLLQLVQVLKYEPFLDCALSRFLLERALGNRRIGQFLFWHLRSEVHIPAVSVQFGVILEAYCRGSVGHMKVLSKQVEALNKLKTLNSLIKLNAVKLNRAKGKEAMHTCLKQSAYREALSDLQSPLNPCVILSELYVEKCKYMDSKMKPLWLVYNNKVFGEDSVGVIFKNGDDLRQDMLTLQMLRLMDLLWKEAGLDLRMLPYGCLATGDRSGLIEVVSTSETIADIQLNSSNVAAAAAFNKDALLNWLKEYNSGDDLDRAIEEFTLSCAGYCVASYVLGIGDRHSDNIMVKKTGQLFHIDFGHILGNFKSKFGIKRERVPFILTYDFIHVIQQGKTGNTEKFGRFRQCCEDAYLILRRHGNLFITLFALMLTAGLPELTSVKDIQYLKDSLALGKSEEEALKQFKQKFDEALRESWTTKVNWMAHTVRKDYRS

Row | Compound | pKi [1] | pIC50 [2] | further results
1 | O=S(=O)(Nc1cc(-c2ccc3ncccc3c2)cnc1Cl)c1ccc(F)cc1 | 8.68 | 6.42 | –
2 | O=S(=O)(Nc1cc(-c2cc3cccnc3cn2)cnc1Cl)c1ccc(F)cc1 | 6.70 | < 5.00 | –
3 | O=S(=O)(Nc1cc(-c2cnc3ncccc3c2)cnc1Cl)c1ccc(F)cc1 | 6.07 | – | –
4 | O=S(=O)(Nc1cc(-c2ccc3nnccc3c2)cnc1Cl)c1ccc(F)cc1 | 7.42 | 5.72 | –
5 | COCCNc1ccnc2ccc(-c3cnc(Cl)c(NS(=O)(=O)c4ccc(F)cc4)c3)cc12 | 7.16 | 5.99 | –
6 | CN(C)c1ccnc2ccc(-c3cnc(Cl)c(NS(=O)(=O)c4ccc(F)cc4)c3)cc12 | 8.24 | 6.65 | –
7 | O=S(=O)(Nc1cc(-c2ccc3nccc(N4CCC(O)CC4)c3c2)cnc1Cl)c1ccc(F)cc1 | 9.05 | 6.82 | –
8 | O=S(=O)(Nc1cc(-c2ccc3nccc(N4CCN(Cc5ccccc5)CC4)c3c2)cnc1Cl)c1ccc(F)cc1 | 9.00 | 6.87 | –
9 | O=S(=O)(Nc1cc(-c2ccc3nccc(N4CCN(Cc5ccncc5)CC4)c3c2)cnc1Cl)c1ccc(F)cc1 | 9.05 | 7.74 | pIC50 [3]: 8.22; pIC50 [4]: 8.19; microsomal CLint at 0.5 h, 1 µM [5]: > 399 µL/min/mg; microsomal CLint at 0.5 h, 1 µM [6]: 247 µL/min/mg; pIC50 [1]: 8.34; pIC50 [7]: 7.82; QH [8]: 0.6%
10 | O=S(=O)(Nc1cc(-c2ccc3nccc(-c4ccccc4)c3c2)cnc1Cl)c1ccc(F)cc1 | 8.89 | 6.90 | –
